This experiment deals with T1, LRRK2 wild type (recombinant human, catalytic domain amino acids 970-2527, GST-tagged) (Homo sapiens, UniProt Q5S007).
T1 construct: The wild type used was recombinant human, catalytic domain (amino acids 970-2527) GST-tagged, expressed in insect cells; GST; purchased Invitrogen Corporation PV4873; host or cells: insect cells
Kind of experiment: LRRK2 wild type protein kinase assay ([γ-33P] ATP, peptide substrate […]), IC50. It is filed as biochemical. To be noted: LRRK2 (variant not given); read-out: Potency score, LRRK2 IC50. The gist of the method: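 IC50 derived from duplicate 10-point titrations, with 33P incorporation into a 100 μM peptide counted after P81 filter capture. Roughly 5 nM unactivated kinase reacted with Mg/[γ-33P]ATP for 180 min at room temperature (~21 °C), pH 7.5 Tris buffer containing 10 mM MgCl2, EGTA and DTT; acid-quenched.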

This note sets out measurements from patent US20170320870A1 (Medical Research Council Technology, priority 2009, published 2017).

Molecules are shown by their SMILES.

T1 sequence (Q5S007 970-2527): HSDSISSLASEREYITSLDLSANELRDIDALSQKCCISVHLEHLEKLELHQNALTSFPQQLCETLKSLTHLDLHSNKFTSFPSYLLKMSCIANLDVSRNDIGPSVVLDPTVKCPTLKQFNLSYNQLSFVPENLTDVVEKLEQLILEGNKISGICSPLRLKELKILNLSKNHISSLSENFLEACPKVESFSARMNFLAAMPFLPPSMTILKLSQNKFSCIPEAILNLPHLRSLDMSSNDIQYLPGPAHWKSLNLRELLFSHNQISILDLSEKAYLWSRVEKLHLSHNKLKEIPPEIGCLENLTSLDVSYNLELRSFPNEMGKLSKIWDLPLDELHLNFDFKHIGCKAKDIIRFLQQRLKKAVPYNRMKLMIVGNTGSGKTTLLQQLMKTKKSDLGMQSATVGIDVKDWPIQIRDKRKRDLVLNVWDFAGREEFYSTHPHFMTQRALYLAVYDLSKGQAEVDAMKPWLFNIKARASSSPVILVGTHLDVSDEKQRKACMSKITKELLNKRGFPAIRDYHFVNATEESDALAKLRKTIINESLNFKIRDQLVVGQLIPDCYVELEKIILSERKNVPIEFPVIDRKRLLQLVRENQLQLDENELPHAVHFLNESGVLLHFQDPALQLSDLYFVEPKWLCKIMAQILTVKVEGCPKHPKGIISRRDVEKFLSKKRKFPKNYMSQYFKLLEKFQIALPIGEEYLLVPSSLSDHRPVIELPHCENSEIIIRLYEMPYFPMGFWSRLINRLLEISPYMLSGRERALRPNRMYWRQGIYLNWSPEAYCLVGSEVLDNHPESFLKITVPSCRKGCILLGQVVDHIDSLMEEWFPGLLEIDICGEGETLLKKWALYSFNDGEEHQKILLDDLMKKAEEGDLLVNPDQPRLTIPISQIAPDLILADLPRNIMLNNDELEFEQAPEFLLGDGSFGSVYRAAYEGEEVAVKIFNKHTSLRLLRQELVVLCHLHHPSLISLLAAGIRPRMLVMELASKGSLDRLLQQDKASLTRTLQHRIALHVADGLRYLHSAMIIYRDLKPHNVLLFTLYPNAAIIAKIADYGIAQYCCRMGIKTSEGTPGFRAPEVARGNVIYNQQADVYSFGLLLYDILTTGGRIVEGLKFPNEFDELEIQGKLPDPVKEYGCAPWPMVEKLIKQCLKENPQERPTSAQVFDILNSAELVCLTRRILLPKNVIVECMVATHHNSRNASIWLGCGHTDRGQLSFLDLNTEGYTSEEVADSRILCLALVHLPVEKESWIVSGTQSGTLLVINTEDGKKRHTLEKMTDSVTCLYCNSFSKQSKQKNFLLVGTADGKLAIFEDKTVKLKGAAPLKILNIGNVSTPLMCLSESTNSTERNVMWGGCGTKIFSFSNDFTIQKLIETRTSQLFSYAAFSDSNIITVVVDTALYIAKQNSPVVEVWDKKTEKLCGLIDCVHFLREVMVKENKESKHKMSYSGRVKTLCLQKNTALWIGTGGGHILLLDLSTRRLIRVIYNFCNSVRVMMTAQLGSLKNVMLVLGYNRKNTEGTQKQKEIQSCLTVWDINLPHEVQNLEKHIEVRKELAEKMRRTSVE

As usually defined, the IC50 is the concentration needed to halve the response being measured. Turning to `O=C(CC1CC1)Nc1cccc(CCc2n[nH]c3ccnc(NC4CCCCC4)c23)c1` [Example 223, N-{3-[2-(4-Cyclohexylamino-1H-pyrazolo[4,3-c]pyridin-3-yl)-ethyl]-phenyl}-2-cyclopropyl-acetamide], the half-maximal inhibitory concentration (IC50) was less than 0.1 µM.

As for `CC1CCCN(C(=O)CCc2n[nH]c3ccnc(NC4CCCCC4)c23)C1` (stereo not drawn) [Example 199, 3-(4-Cyclohexylamino-1H-pyrazolo[4,3-c]pyridin-3-yl)-1-(3-methyl-piperidin-1-yl)-propan-1-one], the concentration for half-maximal inhibition (IC50) is less than 0.1 µM.

Take `CC[C@@H](C)Nc1nccc2[nH]nc(C)c12` [Example 37, ((R)-sec-Butyl)-(3-methyl-1H-pyrazolo[4,3-c]pyridin-4-yl)-amine]: the IC50 was 1 to 10 µM.

As to `Cc1n[nH]c2ccnc(NC3CCC(F)(F)CC3)c12` [Example 20, (4,4-Difluoro-cyclohexyl)-(3-methyl-1H-pyrazolo[4,3-c]pyridin-4-yl)-amine], the concentration for half-maximal inhibition (IC50) was 0.1 to 1 µM.

On to `Cc1n[nH]c2ccnc(Nc3ccn(C)n3)c12` [Example 61, (3-Methyl-1H-pyrazolo[4,3-c]pyridin-4-yl)-(1-methyl-1H-pyrazol-3-yl)-amine], for which the IC50 lay within 0.1 to 1 µM.

With `CC(=O)Nc1ccc(CCc2n[nH]c3ccnc(NC4CCCCC4)c23)cc1` [Example 262, N-{4-[2-(4-Cyclohexylamino-1H-pyrazolo[4,3-c]pyridin-3-yl)-ethyl]-phenyl}-acetamide], the IC50 was less than 0.1 µM.

For the compound `Clc1cccc(-c2n[nH]c3ccnc(NC4CCCCC4)c23)c1` [Example 144, [3-(3-Chloro-phenyl)-1H-pyrazolo[4,3-c]pyridin-4-yl]-cyclohexyl-amine], the half-maximal inhibitory concentration (IC50) was in the range of 0.1 to 1 µM.

As for `Cc1n[nH]c2ccnc(NCCCN3CCCC3=O)c12` [Example 324, 1-[3-(3-Methyl-1H-pyrazolo[4,3-c]pyridin-4-ylamino)-propyl]-pyrrolidin-2-one], the 50% inhibitory concentration (IC50) lay in the range of 1 to 10 µM.

For `CC(=O)Nc1ccc(C(=O)Nc2ccc(CCc3n[nH]c4ccnc(NC5CCCCC5)c34)cc2)cc1` [Example 264, 4-Acetylamino-N-{4-[2-(4-cyclohexylamino-1H-pyrazolo[4,3-c]pyridin-3-yl)-ethyl]-phenyl}-benzamide], the 50% inhibitory concentration (IC50) was less than 0.1 µM.

Consider `CCC[C@@H](C)Oc1nccc2[nH]nc(C)c12` [Example 286, 3-Methyl-4-((R)-1-methyl-butoxy)-1H-pyrazolo[4,3-c]pyridine], for which the 50% inhibitory concentration (IC50) fell in the range of 0.1 to 1 µM.

`CCC(C)Nc1nccc2[nH]nc(C)c12` (stereo not drawn) [Example 23, sec-Butyl-(3-methyl-1H-pyrazolo[4,3-c]pyridin-4-yl)-amine]: the IC50 lay in the range of 0.1 to 1 µM.

On to `Cc1n[nH]c2ccnc(-c3ccc(CNS(C)(=O)=O)cc3)c12` [Example 55, N-[4-(3-Methyl-1H-pyrazolo[4,3-c]pyridin-4-yl)-benzyl]-methane-sulfonamide], for which the half-maximal inhibitory concentration (IC50) fell in the range of 0.1 to 1 µM.

Regarding `Cc1n[nH]c2ccnc(OCCC(C)C)c12` [Example 282, 3-Methyl-4-(3-methyl-butoxy)-1H-pyrazolo[4,3-c] pyridine], the concentration for half-maximal inhibition (IC50) is 0.1 to 1 µM.

With `Cc1n[nH]c2ccnc(Nc3ccc4ncsc4c3)c12` [Example 313, Benzothiazol-6-yl-(3-methyl-1H-pyrazolo[4,3-c]pyridin-4-yl)-amine], the 50% inhibitory concentration (IC50) was 0.1 to 1 µM.

Take `Cc1n[nH]c2ccnc(NCCNc3ccccc3)c12` [Example 337, N-(3-Methyl-1H-pyrazolo[4,3-c]pyridin-4-yl)-N′-phenyl-ethane-1,2-diamine]: the IC50 was in the range of 1 to 10 µM.

On to `Clc1ccccc1-c1n[nH]c2ccnc(NC3CCCCC3)c12` [Example 143, [3-(2-Chloro-phenyl)-1H-pyrazolo[4,3-c]pyridin-4-yl]-cyclohexyl-amine], for which the half-inhibitory concentration (IC50) lay in the range of 0.1 to 1 µM.

`CC[C@H](C)Nc1nccc2[nH]nc(C)c12` [Example 44]: the concentration for half-maximal inhibition (IC50) is 0.1 to 1 µM.

As to `O=C1CCCN1c1n[nH]c2ccnc(NC3CCCCC3)c12` [Example 230, 1-(4-Cyclohexylamino-1H-pyrazolo[4,3-c]pyridin-3-yl)-pyrrolidin-2-one], the concentration for half-maximal inhibition (IC50) was in the range of 1 to 10 µM.

On to `Cc1n[nH]c2ccnc(OC3CCC3)c12` [Example 281, 4-Cyclobutoxy-3-methyl-1H-pyrazolo[4,3-c]pyridine], for which the IC50 is 0.1 to 1 µM.

For the compound `COc1ccc(-c2n[nH]c3ccnc(NC4CCCCC4)c23)cc1Cl` [Example 140, [3-(3-Chloro-4-methoxy-phenyl)-1H-pyrazolo[4,3-c]pyridin-4-yl]-cyclohexyl-amine], the IC50 is 0.1 to 1 µM.

Turning to `Cc1n[nH]c2ccnc(C(=O)NC3CCCCC3)c12` [Example 100, 3-Methyl-1H-pyrazolo[4,3-c]pyridine-4-carboxylic acid cyclohexylamide], the concentration for half-maximal inhibition (IC50) lay in the range of 1 to 10 µM.

With `CC(=O)Nc1cccc(CCc2n[nH]c3ccnc(NC4CCCCC4)c23)c1` [Example 222, N-{3-[2-(4-Cyclohexylamino-1H-pyrazolo[4,3-c]pyridin-3-yl)-ethyl]-phenyl}-acetamide], the IC50 was less than 0.1 µM.

On to `Cc1n[nH]c2ccnc(Nc3ccccc3F)c12` [Example 62, (2-Fluoro-phenyl)-(3-methyl-1H-pyrazolo[4,3-c]pyridin-4-yl)-amine], for which the IC50 was 0.1 to 1 µM.

Take `c1ccc(-c2nnc(CCc3n[nH]c4ccnc(NC5CCCCC5)c34)o2)cc1` [Example 216, Cyclohexyl-{3-[2-(5-phenyl-1,3,4-oxadiazol-2-yl)-ethyl]-1H-pyrazolo[4,3-c]pyridin-4-yl}-amine]: the IC50 fell in the range of 0.1 to 1 µM.

Take `O=C(Nc1ccncc1)c1ccc(CCc2n[nH]c3ccnc(NC4CCCCC4)c23)cc1` [Example 256, 4-[2-(4-Cyclohexylamino-1H-pyrazolo[4,3-c]pyridin-3-yl)-ethyl]-N-pyridin-4-yl-benzamide]: the IC50 is less than 0.1 µM.

With `O=C(Nc1ccc(CCc2n[nH]c3ccnc(NC4CCCCC4)c23)cc1)c1cccnc1` [Example 266, N-{4-[2-(4-Cyclohexylamino-1H-pyrazolo[4,3-c]pyridin-3-yl)-ethyl]-phenyl}-nicotinamide], the IC50 was less than 0.1 µM.

In the case of `FC(F)(F)Oc1ccccc1-c1n[nH]c2ccnc(NC3CCCCC3)c12` [Example 151, Cyclohexyl-[3-(2-trifluoromethoxy-phenyl)-1H-pyrazolo[4,3-c]pyridin-4-yl]-amine], the IC50 lay within 1 to 10 µM.

As to `Cc1n[nH]c2ccnc(Nc3cccc(C#N)c3)c12` [Example 347, 3-(3-Methyl-1H-pyrazolo[4,3-c]pyridin-4-ylamino)-benzonitrile], the IC50 fell in the range of 0.1 to 1 µM.

With `O=C(CCc1n[nH]c2ccnc(NC3CCCCC3)c12)N1CCC(c2ccccc2)CC1` [Example 204, 3-(4-Cyclohexylamino-1H-pyrazolo[4,3-c]pyridin-3-yl)-1-(4-phenyl-piperidin-1-yl)-propan-1-one], the IC50 is less than 0.1 µM.

For the compound `c1cc2[nH]nc(-c3ccoc3)c2c(NC2CCCCC2)n1` [Example 147], the concentration for half-maximal inhibition (IC50) lay within 0.1 to 1 µM.

For `Cc1cc(C)c(Nc2nccc3[nH]nc(C)c23)cn1` [Example 350, (4,6-Dimethyl-pyridin-3-yl)-(3-methyl-1H-pyrazolo[4,3-c]pyridin-4-yl)-amine], the IC50 fell in the range of 1 to 10 µM.

Consider `Cc1n[nH]c2ccnc(N[C@H](C)C3CCCCC3)c12` [Example 38, ((R)-1-Cyclohexyl-ethyl)-(3-methyl-1H-pyrazolo[4,3-c]pyridin-4-yl)-amine], for which the half-inhibitory concentration (IC50) fell in the range of 1 to 10 µM.

As to `O=C(CCc1n[nH]c2ccnc(NC3CCCCC3)c12)N1CCN(c2cccc(Cl)c2)CC1` [Example 180, 1-[4-(3-Chloro-phenyl)-piperazin-1-yl]-3-(4-cyclohexylamino-1H-pyrazolo[4,3-c]pyridin-3-yl)-propan-1-one], the IC50 was in the range of 0.1 to 1 µM.

Consider `CCN(CC)CC1CCCN(C(=O)CCc2n[nH]c3ccnc(NC4CCCCC4)c23)C1` (stereo not drawn) [Example 240, 3-(4-Cyclohexyl-amino-1H-pyrazolo[4,3-c]pyridin-3-yl)-1-(3-diethylaminomethyl-piperidin-1-yl)-propan-1-one], for which the 50% inhibitory concentration (IC50) lay within 0.1 to 1 µM.

On to `Cc1n[nH]c2ccnc(NCC(C)C)c12` [Example 24, Isobutyl-(3-methyl-1H-pyrazolo[4,3-c]pyridin-4-yl)-amine], for which the half-maximal inhibitory concentration (IC50) is 0.1 to 1 µM.

In the case of `Cc1n[nH]c2ccnc(NC3CCN(Cc4ccccc4)CC3)c12` [Example 98, (1-Benzyl-piperidin-4-yl)-(3-methyl-1H-pyrazolo[4,3-c]pyridin-4-yl)-amine], the IC50 fell in the range of 1 to 10 µM.

Consider `Cc1n[nH]c2ccnc(Nc3ccc4cn[nH]c4c3)c12` [Example 93, (1H-Indazol-6-yl)-(3-methyl-1H-pyrazolo[4,3-c]pyridin-4-yl)-amine], for which the IC50 fell in the range of 0.1 to 1 µM.

`O=C(Nc1cccc(CCc2n[nH]c3ccnc(NC4CCCCC4)c23)c1)c1cocn1` [Example 228, Oxazole-4-carboxylic acid {3-[2-(4-cyclohexylamino-1H-pyrazolo[4,3-c]pyridin-3-yl)-ethyl]-phenyl}-amide]: the concentration for half-maximal inhibition (IC50) was less than 0.1 µM.

Consider `CN1CCC(C(=O)Nc2cccc(CCc3n[nH]c4ccnc(NC5CCCCC5)c34)c2)CC1` [Example 224, 1-Methyl-piperidine-4-carboxylic acid {3-[2-(4-cyclohexylamino-1H-pyrazolo[4,3-c]pyridin-3-yl)-ethyl]-phenyl}-amide], for which the IC50 was in the range of 0.1 to 1 µM.

With `Cc1n[nH]c2ccnc(NC3CCCC3)c12` [Example 21, Cyclopentyl-(3-methyl-1H-pyrazolo[4,3-c]pyridin-4-yl)-amine], the half-inhibitory concentration (IC50) fell in the range of 0.1 to 1 µM.

In the case of `CCN(CC)C(=O)C1CCCN(C(=O)CCc2n[nH]c3ccnc(NC4CCCCC4)c23)C1` (stereo not drawn) [Example 193, 1-[3-(4-Cyclohexylamino-1H-pyrazolo[4,3-c]pyridin-3-yl)-propionyl]-piperidine-3-carboxylic acid diethylamide], the 50% inhibitory concentration (IC50) was in the range of 0.1 to 1 µM.

As for `CN(C)C1CCN(C(=O)CCc2n[nH]c3ccnc(NC4CCCCC4)c23)CC1` [Example 174, 3-(4-Cyclohexylamino-1H-pyrazolo[4,3-c]pyridin-3-yl)-1-(4-dimethylamino-piperidin-1-yl)-propan-1-one], the IC50 lay within 1 to 10 µM.
